This is an account of results in patent publication US9670250B2, “Alpha-helical peptidomimetic inhibitors and methods using same” (The Trustees of the University of Pennsylvania, priority 2012, dated 2017).

Starred links: 1 amine or outer side, 2 acyl side, 3 side chain; linkers in the order of their positions; H or OH if unused. Positions of bridges follow the written chain, without caps; N, C: chain ends. Residues, ends and D or L forms follow the SMILES beside them. mXylylene = c1cc(C[*:1])cc(C[*:2])c1

Test [1] has as its target T1, Cathepsin S (Homo sapiens, UniProt P25774). Nature of the test: Ki (µM) (Cathepsin S). An excerpt: (§1) Table printed on a drawing sheet, FIGURES 2A & 2B
Head of the field: Ki (µM) (Cathepsin S)
(§2) The patent's description of the figure: FIG. 2, comprising FIGS. 2A-2C, illustrate inhibitors of the present invention. FIG. 2A depicts a list of parent and lead cysteine protease inhibitors and their Ki values The bold ‘C’ represents the cysteine linked at the i,i+4 position. […] FIG. 2B is a schematic representation of linked helical peptidomimetics. α,α′-Dibromo-meta-xylene is the i,i+4 linker. FIG. 2C illustrates circular dichroism spectra of unlinked (middle) and linked (right) peptidomimetics (key at left) in 50 mM Tris-HCl buffer (pH 7.5) and 40% trifluoroethanol (TFE). α-Helical stabilization substantially increases helicity in solution.
(§3) First copying reader's note: Bold C residues and underlined sequences mark the linked (stapled) peptides; the meanings of N/A and NT are not printed on the sheet.
Where the first naming reader finds the target: head: Ki (µM) (Cathepsin S)
Target sequence in this assay (P25774 115-331 limits assumed): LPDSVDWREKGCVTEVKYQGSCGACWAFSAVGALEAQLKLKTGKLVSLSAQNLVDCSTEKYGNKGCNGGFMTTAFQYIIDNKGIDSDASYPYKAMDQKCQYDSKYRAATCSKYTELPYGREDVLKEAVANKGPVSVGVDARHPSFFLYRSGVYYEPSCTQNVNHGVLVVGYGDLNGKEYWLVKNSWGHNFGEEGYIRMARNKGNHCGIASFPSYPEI

The target in test [2] is T1, Cathepsin S. Description: in vitro fluorescence-based protease inhibition assay, cathepsin S. The test is classed as biochemical. The text has this:
(§4) Thus, the present invention includes a series of potent and highly specific α-helical inhibitors for papain family cysteine proteases. […] These short α-helical peptidomimetic inhibitors are modeled after the natural pro-domain sequence but contain a cysteine substitution at specific residues in i,i+4 positions, as shown in FIG. 2B. These cysteine residues are used for stabilization of the helix utilizing an appropriate linker (Muppidi, et al., 2011, Chem Commun (Camb) 47:9396-9398). After synthesis, each inhibitor was tested against its respective protease using an in vitro fluorescence-based assay. For each enzyme, at least one inhibitor was identified that is relatively potent and highly specific for its individual protease. These inhibitors can be modified or otherwise optimized to attain higher potency and selectivity through identification of key interactions between the inhibitor and the active site amino acid residues. Such optimization involves visual examination of the protease crystal structure, and substitution with either non-natural or natural amino acids to exploit possible crucial non-covalent protein ligand interactions, such as hydrogen bond, electrostatic, hydrophobic, and Van der Waals interactions.
Target sequence in this assay (P25774 115-331, species assumed): as the sequence (P25774 115-331 limits assumed) above

The target of another test is Cathepsin L (Homo sapiens, UniProt P07711). Nature of the test: in vitro fluorescence-based protease inhibition assay, cathepsin L. The test is classed as biochemical.
Chain of Cathepsin L (P07711 114-333, species assumed): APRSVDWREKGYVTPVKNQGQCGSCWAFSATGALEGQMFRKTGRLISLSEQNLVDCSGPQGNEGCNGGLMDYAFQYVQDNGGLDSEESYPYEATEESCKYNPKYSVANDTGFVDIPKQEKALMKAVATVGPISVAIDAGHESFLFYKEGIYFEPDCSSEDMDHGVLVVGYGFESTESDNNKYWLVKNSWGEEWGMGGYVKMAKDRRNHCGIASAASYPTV
Text: as §4

The target of test [3] is T2, Cathepsin K (Homo sapiens, UniProt P43235).
T2 sequence (P43235 115-329): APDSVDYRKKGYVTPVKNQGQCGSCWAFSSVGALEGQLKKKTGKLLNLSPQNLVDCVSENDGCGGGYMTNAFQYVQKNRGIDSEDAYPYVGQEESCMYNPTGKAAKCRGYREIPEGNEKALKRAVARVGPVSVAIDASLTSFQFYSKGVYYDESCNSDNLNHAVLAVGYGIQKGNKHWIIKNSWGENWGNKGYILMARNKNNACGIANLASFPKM
Nature of the test: in vitro fluorescence-based protease inhibition assay, cathepsin K. The test is classed as biochemical.
Text: as §4

The next test deals with T3, Calpain (Calpain-1) (Homo sapiens, UniProt P07384).
T3 sequence (P07384 1-714): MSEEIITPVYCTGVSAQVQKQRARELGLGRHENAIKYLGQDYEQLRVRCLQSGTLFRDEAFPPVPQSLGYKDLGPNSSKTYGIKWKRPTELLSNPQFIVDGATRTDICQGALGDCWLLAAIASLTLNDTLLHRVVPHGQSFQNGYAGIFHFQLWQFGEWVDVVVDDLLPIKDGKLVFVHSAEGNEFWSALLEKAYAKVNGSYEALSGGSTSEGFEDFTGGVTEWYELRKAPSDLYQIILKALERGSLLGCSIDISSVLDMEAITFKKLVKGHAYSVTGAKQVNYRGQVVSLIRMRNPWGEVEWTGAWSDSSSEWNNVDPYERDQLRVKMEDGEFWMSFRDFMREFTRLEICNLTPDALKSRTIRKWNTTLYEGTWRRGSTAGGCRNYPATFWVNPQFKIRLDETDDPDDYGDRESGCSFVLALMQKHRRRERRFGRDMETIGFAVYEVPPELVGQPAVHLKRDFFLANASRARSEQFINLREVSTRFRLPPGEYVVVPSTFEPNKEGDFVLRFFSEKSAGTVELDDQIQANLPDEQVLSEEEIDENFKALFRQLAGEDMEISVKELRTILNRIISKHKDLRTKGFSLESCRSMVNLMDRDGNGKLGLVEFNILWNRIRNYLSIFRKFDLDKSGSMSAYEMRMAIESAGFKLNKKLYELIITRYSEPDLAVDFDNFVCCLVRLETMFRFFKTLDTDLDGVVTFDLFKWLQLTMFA
T3 sequence (P04632 1-268 partner): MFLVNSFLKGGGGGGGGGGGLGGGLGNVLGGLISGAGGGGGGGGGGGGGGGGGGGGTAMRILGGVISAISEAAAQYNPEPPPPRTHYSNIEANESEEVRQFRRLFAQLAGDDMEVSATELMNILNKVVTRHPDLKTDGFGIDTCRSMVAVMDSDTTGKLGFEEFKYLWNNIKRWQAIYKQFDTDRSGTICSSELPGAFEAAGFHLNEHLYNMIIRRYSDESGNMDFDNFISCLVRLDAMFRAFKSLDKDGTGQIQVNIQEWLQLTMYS
Description: in vitro fluorescence-based protease inhibition assay, calpain. The test is classed as biochemical.
Text: as §4

Another test concerns the target Calpain-1 (Homo sapiens, UniProt P07384). Description: Ki (µM) (Calpain).
Text: as §1
Head of the field: Ki (µM) (Calpain)
as §2, §3

Test [4] concerns the target Cathepsin K (Homo sapiens, UniProt P43235). Nature of the test: Ki (µM) (Cathepsin K).
Text: as §1
Head of the field: Ki (µM) (Cathepsin K)
as §2, §3
Where the first naming reader finds the target: head: Ki (µM) (Cathepsin K)

The mark [5] stands for this setting: Table 3, cathepsin K inhibitors.
[6] abbreviates: Table 2, cathepsin S inhibitors.

Take `CSCC[C@H](NC(=O)[C@H](CC(C)C)NC(=O)[C@H](CO)NC(=O)[C@H](CC(N)=O)NC(=O)[C@H](CCSC)NC(=O)[C@@H](NC(=O)[C@H](CCC(=O)O)NC(=O)[C@H](CCC(=O)O)NC(=O)[C@H](CO)NC(=O)[C@@H](N)[C@@H](C)O)C(C)C)C(=O)N[C@@H](CO)C(=O)N[C@@H](CO)C(=O)O` [SEQ ID NO:14, TSEEVMNSLMSS] (H-TSEEVMNSLMSS-OH; N-terminus and C-terminus assumed): the Ki on Cathepsin S [1] was above 100 µM. For the compound TSEEVCSLMCS [SEQ ID NO:16], the “cathepsin S inhibitory activity, in words” value in the test with Cathepsin S [2] is “increased inhibition”. Besides, in the test with Cathepsin L, the “potency on cathepsin L over cathepsin S, in words” value is “much more potent inhibitor of cathepsin L over cathepsin S”. The “effect on cathepsin K (inhibition or activation), in words” value with Cathepsin K [3] is “did not inhibit”. With `CSCC[C@H](NC(=O)[C@H](CCCCN)NC(=O)[C@@H]1CSCc2cccc(c2)CSC[C@H](NC(=O)[C@@H](N)CO)C(=O)N[C@@H](CCC(=O)O)C(=O)N[C@@H](CO)C(=O)N[C@@H](C(C)C)C(=O)N1)C(=O)N[C@H](C(=O)NCC(=O)N[C@@H](CC(C)C)C(=O)O)[C@@H](C)O` [compound 37] (H-SCESVCKMTGL-OH; linker 2-6 via mXylylene; N-terminus and C-terminus assumed), the Ki on Calpain (Calpain-1) (setting [5]), at Cathepsin L (setting [5]) and at Cathepsin K [3] (setting [5]) was above 100 µM in each case. In the case of `CSCC[C@@H]1NC(=O)[C@H](CC(C)C)NC(=O)[C@H](CO)NC(=O)[C@@H](NC(=O)[C@@H](NC(=O)[C@H](Cc2c[nH]c3ccccc23)NC(=O)[C@H](CCC(=O)O)NC(=O)[C@H](CO)NC(=O)[C@@H](N)[C@@H](C)O)C(C)C)CSCc2cccc(c2)CSC[C@@H](C(=O)N[C@@H](CO)C(=O)O)NC1=O` [compound 20] (H-TSEWVCSLMCS-OH; linker 6-10 via mXylylene; N-terminus and C-terminus assumed), the Ki on Calpain (Calpain-1) (setting [6]) is above 100 µM; at Cathepsin L (setting [6]), 57.1 ± 1.24 µM; on Cathepsin K [3] (setting [6]), above 100 µM. For the compound `CC[C@H](C)[C@H](N)C(=O)N1CCC[C@H]1C(=O)N1CCC[C@H]1C(=O)N[C@@H](CCCCN)C(=O)N[C@@H](Cc1ccc(O)cc1)C(=O)N[C@@H](CCCNC(=N)N)C(=O)N[C@@H](CCC(=O)O)C(=O)N[C@@H](CC(C)C)C(=O)N[C@@H](CC(C)C)C(=O)N[C@@H](C)C(=O)O` [SEQ ID NO:62, IPPKYRELLA] (H-IPPKYRELLA-OH; N-terminus and C-terminus assumed), the Ki on Calpain-1 was above 100 µM. On to `CSCC[C@H](NC(=O)[C@H](CC(C)C)NC(=O)[C@H](CO)NC(=O)[C@H](CC(N)=O)NC(=O)[C@H](CCSC)NC(=O)[C@@H](NC(=O)[C@H](CCC(=O)O)NC(=O)[C@H](CCC(=O)O)NC(=O)[C@H](CO)NC(=O)[C@@H](N)[C@@H](C)O)C(C)C)C(=O)N[C@@H](CO)C(=O)N[C@@H](CO)C(=O)O` [SEQ ID NO:14, TSEEVMNSLMSS, reference compound] (H-TSEEVMNSLMSS-OH), for which the “cathepsin S inhibitory activity, in words” value on Cathepsin S [2] is recorded as “did not demonstrate any intrinsic inhibitory activity”. For `CC[C@H](C)[C@H](NC(=O)[C@@H](NC(=O)[C@@H](NC(=O)[C@H](CCC(=O)O)NC(=O)[C@H](CCCNC(=N)N)NC(=O)[C@H](CCCCN)NC(=O)CNC(=O)[C@@H](N)CC(C)C)C(C)C)[C@@H](C)O)C(=O)N1CCC[C@H]1C(=O)N1CCC[C@H]1C(=O)N[C@@H](CCCCN)C(=O)N[C@@H](Cc1ccc(O)cc1)C(=O)N[C@H]1CSCc2cccc(c2)CSC[C@@H](C(=O)O)NC(=O)[C@H](CC(C)C)NC(=O)[C@H](CC(C)C)NC(=O)[C@H](CCC(=O)O)NC1=O` [compound 67] (H-LGKREVTIPPKYCELLC-OH; linker 13-17 via mXylylene; N-terminus and C-terminus assumed), the Ki was 3.6 ± 1.7 µM at Calpain (Calpain-1) (Table 4, calpain inhibitors); above 100 µM on Cathepsin L (Table 4, calpain inhibitors); above 100 µM at Cathepsin K [3] (Table 4, calpain inhibitors). Consider `CSCC[C@H](NC(=O)[C@H](CCCCN)NC(=O)[C@H](CCC(N)=O)NC(=O)[C@@H](NC(=O)[C@@H](NC(=O)[C@H](CCC(=O)O)NC(=O)[C@H](CCC(=O)O)NC(=O)[C@@H](N)CO)C(C)C)C(C)C)C(=O)N[C@H](C(=O)NCC(=O)N[C@@H](CC(C)C)C(=O)O)[C@@H](C)O` [SEQ ID NO:32, SEEVVQKMTGL] (H-SEEVVQKMTGL-OH; N-terminus and C-terminus assumed), for which the inhibition constant Ki on Cathepsin K [4] is above 100 µM. Turning to TWEWVCSLMCS [SEQ ID NO:23], in the test with Cathepsin S [2], the “specificity for cathepsin S over cathepsin L” value is recorded as “twice as specific”.
